Source: patent EP1174424A1, “3-[…] D DERIVATIVES” (CHUGAI SEIYAKU KABUSHIKI KAISHA, priority 1999, dated 2000)

Molecular target: T1, Bovine thymus 1α,25-dihydroxy vitamin D3 receptor (Bos taurus, UniProt Q28037)
T1 construct: Bovine thymus 1α,25-dihydroxy vitamin D3 receptor was purchased from YAMASA BIOCHEMICAL; purchased YAMASA BIOCHEMICAL (Choshi, Chiba, Japan); host or cells: bovine thymus (tissue preparation)
T1 sequence (Q28037 1-426): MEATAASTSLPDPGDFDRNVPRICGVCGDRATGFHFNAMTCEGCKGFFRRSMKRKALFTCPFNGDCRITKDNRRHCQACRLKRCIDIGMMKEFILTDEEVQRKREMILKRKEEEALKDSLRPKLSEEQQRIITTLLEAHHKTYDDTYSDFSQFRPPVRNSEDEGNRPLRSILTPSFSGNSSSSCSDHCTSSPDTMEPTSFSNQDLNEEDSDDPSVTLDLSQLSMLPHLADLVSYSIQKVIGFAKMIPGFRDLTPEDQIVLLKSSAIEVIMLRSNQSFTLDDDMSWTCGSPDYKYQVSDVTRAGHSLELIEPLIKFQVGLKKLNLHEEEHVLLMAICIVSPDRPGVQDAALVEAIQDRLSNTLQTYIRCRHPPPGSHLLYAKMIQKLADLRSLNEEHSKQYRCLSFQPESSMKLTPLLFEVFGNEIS
Assay: Assay for binding to vitamin D receptor (VDR); displacement of [3H]-1α,25-dihydroxy vitamin D3
Conditions: relative value, with that of 1α,25-dihydroxy vitamin D3 taken as 100; [3H]-1α,25-dihydroxy vitamin D3 at 0.1 nM, overnight at 4°C
Description: Test example 1: Assay for binding to vitamin D receptor (VDR)
Bovine thymus 1α,25-dihydroxy vitamin D3 receptor was purchased from YAMASA BIOCHEMICAL (Choshi, Chiba, Japan) and dissolved in 0.05 M phosphate buffer (pH 7.4) containing 0.3M KCl and 5mM dithiothreitol just before use. Aliquots (500 µl, 0.23 mg protein) of the receptor solution and ethanol solutions (50 µl) of 1α,25-dihydroxy vitamin D3 or derivatives (compounds of the present invention) at various concentrations were combined, and pre-incubated at 25°C for 60 minutes. To the resultant receptor mixtures, [^3H]-1α,25-dihydroxy vitamin D3 was added at 0.1 nM, followed by standing overnight at 4°C. The mixtures were treated with dextran coated charcoal for 30 minutes at 4°C to separate the bound arid free forms of [^3H]-1α,25-dihydroxy vitamin D3, and centrifuged at 3000 rpm for ten minutes. Each of the resultant supernatants (500 µl) was mixed with ACS-II (9.5 ml) (AMERSHAM, England) for radioactivity measurement.
The binding property of the compounds of the present invention was expressed in relative values, with that of 1α,25-dihydroxy vitamin D3 taken as 100. (Table 1)

Compound	Binding property
C=C1/C(=C\C=C2/CCC[C@]3(C)[C@@H]([C@H](C)CCCC(C)(C)O)CC[C@@H]23)C[C@](C)(O)C[C@@H]1O [3-Me-(1α,3α)-dihydroxy vitamin D3]	< 0.1
C=C1/C(=C\C=C2/CCC[C@]3(C)[C@@H]([C@H](C)CCCC(C)(C)O)CC[C@@H]23)C[C@@](C)(O)C[C@@H]1O [3-Me-(1α,3β)-dihydroxy vitamin D3]	18
C=C1/C(=C\C=C2/CCC[C@]3(C)[C@@H]([C@H](C)CCCC(C)(C)O)CC[C@@H]23)C[C@](C)(O)C[C@H]1O [3-Me-(1β,3α)-dihydroxy vitamin D3, 3-methyl-1β,3α-dihydroxy vitamin D3]	< 0.1
C=C1/C(=C\C=C2/CCC[C@]3(C)[C@@H]([C@H](C)CCCC(C)(C)O)CC[C@@H]23)C[C@@](C)(O)C[C@H]1O [3-Me-(1β,3β)-dihydroxy vitamin D3, 3-methyl-1β,3β-dihydroxy vitamin D3]	< 0.1
